Data on one molecule can be found in US20060019907A1, “Guggulsterone: an inhibitor of nuclear factor - kappaB and IkappaBalpha kinase activation and uses thereof” (Research Development Foundation, priority 2004, published 2006).

In one data set the test system is RAW 264.7 cells. In words: Osteoclast differentiation assay, RANKL-induced. The following applies: RANKL 5 nM. In kind it is cell-based, mouse. The procedure:
Osteoclast differentiation assay: […] cells were cultured in 24-well dishes at a density of 1×10^4 cells per well and were allowed to adhere overnight. Medium was then replaced and the cells were treated with 5 nM (˜100 ng/ml) RANKL. At different days, cultures were stained for TRAP expression using an acid phosphatase kit, and the total number of TRAP-positive multinucleated osteoclasts (>3 nuclei) per well were counted.
Osteoclast differentiation assay. RAW 234.7 cells were cultured in 24-well dishes at a density of 1×10^4 cells per well and were allowed to adhere overnight. Medium was then replaced and the cells were treated with 5 nM (100 ng/ml) RANKL. At day 5, cultures were stained for TRAP expression as described (Shevde et al., 2000) using an acid phosphatase kit, and the total number of TRAP-positive multinucleated osteoclasts (3 nuclei) per well were counted.

Data set [1] concerns cyclin D1, cdc2, p21, p27, GADD45β, xIAP, Bfl-1/A1, Bcl-2, BclX1, cFLIP, survivin, c-myc, COX2. The experiment in a line: Western blot of cell cycle, anti-apoptotic, proliferative and metastatic gene products in U937 cells. Conditions: 10 μM. In kind it is cell-based, human. The procedure: Western blot analysis. Thirty to fifty micrograms of cytoplasmic, nuclear or whole cell protein was resolved on 10% SDS-PAGE gel, transferred to a nitrocellulose membrane, blocked with 5% non-fat milk, and probed with specific antibodies as per manufacturer's recommended protocol. The blots were washed, exposed to HRP-conjugated secondary antibodies for 1 h, and detected by ECL reagent (Amersham Pharmacia Biotechnology, Piscataway, N.J.). The bands were quantitated using a Personal Densitometer Scan v1.30 using Imagequant software version 3.3 (Molecular Dynamics).

For data set [2] the following is noted: humans; cited from earlier work.
For data set [3], the system named is MKK4 mutants and wild type cells. The experiment in a line: Cytotoxicity (MTT uptake) in MKK4 mutants and wild type cells. In kind it is cell-based. The following applies: 72 h. The method, then:
Cytotoxicity assay. The cytotoxic effects of guggulsterone was determined by the MTT uptake method. Briefly, 5000 cells were incubated with guggulsterone in triplicate in a 96-well plate at 37° C. MTT solution was then added to each well. After a 2-h incubation at 37° C., extraction buffer (20% SDS, 50% dimethylformamide) was added, the cells were incubated overnight at 37° C., and the OD was then measured at 570 nm using a 96-well multiscanner (Dynex Technologies, MRX Revelation, Chantilly, Va.).

Another data set relates to IKK. The experiment in a line: Direct inhibition of immunoprecipitated IKK, kinase assay. In kind it is biochemical, human. Conditions: 50 μM; immune complex treated 30 min at 30° C. The method, then:
IKK Assay: To determine the effect of guggulsterone on TNF-induced IKK activation, IKK was analyzed by a method essentially as described previously (Shishodia et al., 2003). Briefly, IKK complex was precipitated from whole-cell extracts with antibody to IKKα and IKKβ, assayed in kinase assay using GST-IκBα (1-54) as a substrate, and resolved on 10% polyacrylamide gel; the radioactive bands were visualized using a PHOSPHORIMAGER™. To determine the total amounts of IKKα and IKKβ in each sample, 30 μg of the whole-cell extract protein was resolved on a 7.5% polyacrylamide gel and analyzed by Western blot using antibody against IKKα and IKKβ.

A further data set has as its system STAT3. The experiment in a line: IL-6-inducible STAT3 phosphorylation in RPMI 8226 cells, Western blot. It counts as cell-based, human. The procedure:
Western blot. For detection of STAT proteins, whole-cell extracts were prepared by lysing the guggulsterone-treated cells in lysis buffer (20 mM Tris, pH 7.4, 250 mM NaCl, 2 mM EDTA, pH 8.0, 0.1% Triton −X100, 0.01 mg/ml aprotinin, 0.005 mg/ml leupeptin, 0.4 mM PMSF, and 4 mM NaVO4). Lysates were then spun at 14,000 rpm for 10 min to remove insoluble material, and resolved on a 7.5% gel. After electrophoresis, the proteins were electrotransferred to a nitrocellulose membrane, blocked with 5% nonfat milk, and probed with anti-STAT antibodies (1:1000) overnight at 4° C. The blot was washed, exposed to HRP-conjugated secondary antibodies for 1 h, and finally examined by chemiluminescence (ECL, Amersham Pharmacia Biotech. Arlington Heights, Ill.).

The test system of another data set is U937 cells. The experiment in a line: Annexin V and TUNEL assays. In kind it is cell-based, human. The method, then: Annexin V Assay. One of the early indicators of apoptosis is the rapid translocation and accumulation of the membrane phospholipid phosphatidylserine from the cell's cytoplasmic interface to the extracellular surface. This loss of membrane asymmetry can be detected using the binding properties of annexin V. To detect apoptosis, annexin V antibody conjugated with the fluorescent dye FITC was used. Briefly, 1×10^6 cells were pretreated with 10 μM guggulsterone for various time points and then subjected to annexin V staining. Cells were washed, stained with FITC-conjugated anti-annexin V antibody, and then analyzed with a flow cytometer (FACSCalibur; BD Biosciences). TUNEL Assay. Apoptosis was also assessed by the terminal deoxynucleotidyl transferase-mediated deoxyuridine triphosphate nick end-labeling (TUNEL) method, which examines DNA strand breaks that occur during apoptosis, using an in situ cell death detection reagent (Roche Molecular Biochemicals, Mannheim, Germany). Assays were performed using 5×10^5 cells that were incubated with 10 μM guggulsterone for 24 h and then fixed with 4% paraformaldehyde, and permeabilized with 0.1% Triton-X 100 in 0.1% sodium citrate. After being washed, the cells were incubated with reaction mixture for 60 min at 37° C. Stained cells were analyzed with a flow cytometer (FACSCalibur).

Another data set concerns KBM-5 cells. The experiment in a line: Live and Dead (calcein AM) assay, TNF plus guggulsterone. In kind it is cell-based, human. Conditions: TNF in combination with guggulsterone, 24 hours. An excerpt:
Live and Dead Assay: To measure apoptosis, the Live and Dead assay (Molecular Probes) was used, which determines intracellular esterase activity and plasma membrane integrity. This assay employs calcein, a polyanionic dye, which is retained within the live cells and provides green fluorescence. It also employs the ethidium […] dye (red fluorescence), which can enter the cells only through damaged membranes and bind to nucleic acids but is excluded by the intact plasma membrane of live cells. Briefly, 1×10^5 cells are incubated with 10 μM guggulsterone for 24 h and then treated with 1 nM TNF for 16 hours at 37° C. Cells are stained with the Live and Dead reagent (5 μM ethidium homodimer, 5 μM calcein-AM) and then incubated at 37° C. for 30 min. Cells were analyzed under a fluorescence microscope (Labophot-2).

On to `CC=C1C(=O)C[C@H]2[C@@H]3CCC4=CC(=O)CC[C@]4(C)[C@H]3CC[C@]12C` [guggulsterone, 4,17(20)-pregnadiene-3,16-dione], for which the “number of RANKL-induced osteoclasts” value in the data set on RAW 264.7 cells (5 days, TRAP) is given as “the number of osteoclasts decreased with increasing concentration of GS”. For the same molecule, in the data set with RAW 264.7 cells (GS 5 μM, 5 days), the “RANKL-induced osteoclastogenesis, GS added 24 h after RANKL” value is “inhibited osteoclastogenesis even when the cells were exposed 24 h after the RANKL treatment” and the “RANKL-induced osteoclastogenesis, GS added 3 days after RANKL” value is recorded as “the inhibitory effect decreased significantly”. The “RANKL-induced osteoclastogenesis (Example 1)” value in the data set on RAW 264.7 cells (guggulsterone 5 μM, TRAP staining) is “inhibits RANKL-induced NF-κB activation and osteoclastogenesis”. Moreover, in data set [1], the “gene products involved in antiapoptosis (xIAP, Bfl-1/A1, Bcl-2, BclX1, cFLIP, survivin), proliferation (c-myc) and metastasis (COX2)” value is “inhibited the gene products involved in antiapoptosis”; the “levels of cyclin D1 and cdc2” value is “decrease in the levels of cyclin D1 and cdc2”; the “levels of p21, p27 and GADD45β” value is reported as “increase in the levels of cyclin dependent kinase inhibitor p21, p27”. Also, in data set [2], the pharmacological safety entry is “pharmacologically safe agent in humans”. Besides, the “guggulsterone induced cytotoxicity, dependence on MKK4” value in data set [3] is listed as “MKK4 is required for guggulsterone induced cytotoxicity”. Moreover, the “phosphorylation of GST IκBα by immunoprecipitated IKK (direct inhibition)” value in the data set on IKK is reported as “inhibited the phosphorylation of GST IκBα”. Further, the “exposure time sufficient to completely suppress IL-6-induced STAT3 phosphorylation” value with STAT3 (25 μM) stood at 4 h. For the same molecule, the “IL-6-induced STAT3 phosphorylation” value in the data set with STAT3 (25 μM, IL-6 10 ng/ml 10 min) was “blocked by guggulsterone in a time-dependent manner”. Moreover, the “STAT3 phosphorylation by guggulsterone alone” value with STAT3 (data not shown) is given as “had no effect on STAT3 phosphorylation”. For the same molecule, the “number of Annexin V and TUNEL positive cells” value in the data set with U937 cells is “increased the number of Annexin V and TUNEL positive cells”. Besides, in the data set with KBM-5 cells, the “TNF-induced apoptosis, calcein AM-based live/dead assay” value is listed as “TNF-induced apoptosis was significantly enhanced”.
